{"source": "patent US20250353891A1", "about": "(MEDIMMUNE LIMITED, priority 2022, published 2025)", "key": {"[1]": {"molecular_target": "human GLP-1 receptor (hGLP-1R) (Homo sapiens, UniProt P43220)", "sequence (P43220 24-463)": "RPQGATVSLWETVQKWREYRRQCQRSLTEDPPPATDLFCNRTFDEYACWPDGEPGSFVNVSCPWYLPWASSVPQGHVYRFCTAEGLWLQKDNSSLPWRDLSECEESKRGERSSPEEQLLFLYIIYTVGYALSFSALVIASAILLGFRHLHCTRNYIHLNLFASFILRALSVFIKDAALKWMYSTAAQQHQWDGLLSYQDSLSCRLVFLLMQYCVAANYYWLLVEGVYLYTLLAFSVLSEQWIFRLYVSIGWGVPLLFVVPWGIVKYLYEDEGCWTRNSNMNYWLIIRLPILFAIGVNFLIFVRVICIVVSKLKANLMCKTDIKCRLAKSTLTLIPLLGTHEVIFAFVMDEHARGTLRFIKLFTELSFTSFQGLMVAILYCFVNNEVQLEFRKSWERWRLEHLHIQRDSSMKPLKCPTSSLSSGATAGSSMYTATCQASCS", "assay": "cAMP production (HTRF) in CHO cells expressing hGLP-1R", "type": "cell-based", "design": "expressed in transfected cells", "details": "for EC50: Table 6, peptides modified at position 17, cAMP in CHO hGLP-1R cells, geometric mean, read-out: hGLP-1R EC50; for % Relative Potency Ratio: Table 6, % GLP-1R activity relative to GLP-1 / % GlucR activity relative to glucagon", "outline": "(§1)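 Potency values represent EC50 from 4-parameter logistic curves of HTRF % Delta F signal. Receptor-expressing CHO cells (hGCGR 2×10^5 cells/mL, hGLP-1R 1×10^5 cells/mL) were exposed for 30 min at room temperature before two-step cAMP detection.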"}, "[2]": {"molecular_target": "human glucagon receptor (hGCGR) (Homo sapiens, UniProt P47871)", "sequence (P47871 26-477)": "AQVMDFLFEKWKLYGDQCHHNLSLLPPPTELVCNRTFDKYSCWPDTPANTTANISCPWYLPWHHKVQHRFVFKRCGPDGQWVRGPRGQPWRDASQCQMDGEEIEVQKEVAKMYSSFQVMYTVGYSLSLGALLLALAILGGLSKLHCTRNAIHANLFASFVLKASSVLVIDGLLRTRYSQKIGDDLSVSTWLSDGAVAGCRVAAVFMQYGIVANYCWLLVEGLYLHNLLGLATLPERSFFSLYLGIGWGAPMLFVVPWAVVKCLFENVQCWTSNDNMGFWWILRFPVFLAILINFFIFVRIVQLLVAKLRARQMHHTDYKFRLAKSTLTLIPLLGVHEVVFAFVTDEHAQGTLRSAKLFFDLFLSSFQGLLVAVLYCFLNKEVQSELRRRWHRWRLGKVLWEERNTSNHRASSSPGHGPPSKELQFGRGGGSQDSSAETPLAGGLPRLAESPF", "assay": "cAMP production (HTRF) in CHO cells expressing hGCGR", "type": "cell-based", "design": "expressed in transfected cells", "details": "Table 6, peptides modified at position 17; cAMP in CHO hGCGR cells; geometric mean; read-out: hGluc-R EC50", "outline": "as §1"}}, "note": "Starred links: 1 amine or outer side, 2 acyl side, 3 side chain; linkers in the order of their positions; H or OH if unused. Non-standard residues stand in square brackets, D forms with d. Residues, ends and D or L forms follow the SMILES beside them. Groups on a side chain read outwards from the residue. *: point of attachment. C20 diacid = O=C(O)CCCCCCCCCCCCCCCCCCC(=O)*; C18 diacid = O=C(O)CCCCCCCCCCCCCCCCC(=O)*; γGlu = O=C(O)[C@H](CCC(=O)[*:2])N[*:1]; αMeF = C[C@](N)(Cc1ccccc1)C(=O)O; AEEA = NCCOCCOCC(=O)O; Aib = CC(C)(N)C(=O)O", "data": [{"smiles": "CC(C)C[C@H](NC(=O)[C@H](Cc1c[nH]c2ccccc12)NC(=O)[C@H](CCCNC(=N)N)NC(=O)[C@@H](NC(=O)[C@H](Cc1ccccc1)NC(=O)[C@H](CC(=O)O)NC(=O)[C@H](CCC(N)=O)NC(=O)[C@H](C)NC(=O)[C@H](CCCNC(=N)N)NC(=O)[C@H](CCCCNC(=O)COCCOCCNC(=O)COCCOCCNC(=O)CC[C@H](NC(=O)CCCCCCCCCCCCCCCCCCC(=O)O)C(=O)O)NC(=O)[C@H](CO)NC(=O)[C@H](CCC(=O)O)NC(=O)[C@H](CC(C)C)NC(=O)[C@](C)(Cc1ccccc1)NC(=O)[C@H](CCCCN)NC(=O)[C@H](CO)NC(=O)[C@@H](NC(=O)[C@H](CC(=O)O)NC(=O)[C@H](CO)NC(=O)[C@@H](NC(=O)[C@H](Cc1ccccc1)NC(=O)[C@@H](NC(=O)CNC(=O)[C@H](CCC(N)=O)NC(=O)C(C)(C)NC(=O)[C@@H](N)Cc1c[nH]cn1)[C@@H](C)O)[C@@H](C)O)C(C)C)C(C)C)C(=O)N[C@@H](CC(C)C)C(=O)NC(C)(C)C(=O)N[C@H](C(=O)N[C@@H](CCC(=O)O)C(=O)O)[C@@H](C)O", "note": "[Peptide 509] (H-H[Aib]QGTFTSDVSK[αMeF]LESK([AEEA-AEEA-γGlu-C20 diacid])RAQDFVRWLL[Aib]TE-OH; N-terminus assumed)", "values": [{"measurement": "EC50", "setting": "[1]", "result": 0.594, "unit": "nM"}, {"measurement": "% Relative Potency Ratio", "setting": "[1]", "result": 10.1}, {"measurement": "EC50", "setting": "[2]", "result": 3.02, "unit": "nM"}]}, {"smiles": "CC(C)C[C@H](NC(=O)[C@H](Cc1c[nH]c2ccccc12)NC(=O)[C@H](CCCNC(=N)N)NC(=O)[C@@H](NC(=O)[C@H](Cc1ccccc1)NC(=O)[C@H](CC(=O)O)NC(=O)[C@H](CCCNC(=N)N)NC(=O)[C@H](C)NC(=O)[C@H](CCCNC(=N)N)NC(=O)[C@H](CCCCNC(=O)COCCOCCNC(=O)COCCOCCNC(=O)CC[C@H](NC(=O)CCCCCCCCCCCCCCCCCCC(=O)O)C(=O)O)NC(=O)[C@@H](NC(=O)[C@H](CC(=O)O)NC(=O)[C@H](CC(C)C)NC(=O)[C@](C)(Cc1ccccc1)NC(=O)[C@H](CCCCN)NC(=O)[C@H](CO)NC(=O)[C@@H](NC(=O)[C@H](CC(=O)O)NC(=O)[C@H](CO)NC(=O)[C@@H](NC(=O)[C@H](Cc1ccccc1)NC(=O)[C@@H](NC(=O)CNC(=O)[C@H](CCC(N)=O)NC(=O)C(C)(C)NC(=O)[C@@H](N)Cc1c[nH]cn1)[C@@H](C)O)[C@@H](C)O)C(C)C)[C@@H](C)O)C(C)C)C(=O)N[C@@H](CC(C)C)C(=O)NC(C)(C)C(=O)N[C@@H](CCC(=O)O)C(=O)O", "note": "[Peptide 510] (H-H[Aib]QGTFTSDVSK[αMeF]LDTK([AEEA-AEEA-γGlu-C20 diacid])RARDFVRWLL[Aib]E-OH; N-terminus assumed)", "values": [{"measurement": "EC50", "setting": "[1]", "result": 0.176, "unit": "nM"}, {"measurement": "% Relative Potency Ratio", "setting": "[1]", "result": 1.3}, {"measurement": "EC50", "setting": "[2]", "result": 0.118, "unit": "nM"}]}, {"smiles": "CC(C)C[C@H](NC(=O)[C@H](Cc1c[nH]c2ccccc12)NC(=O)[C@H](CCCNC(=N)N)NC(=O)[C@@H](NC(=O)[C@H](Cc1ccccc1)NC(=O)[C@H](CC(=O)O)NC(=O)[C@H](CCCNC(=N)N)NC(=O)[C@H](C)NC(=O)[C@H](CCCNC(=N)N)NC(=O)[C@H](CCCCNC(=O)COCCOCCNC(=O)COCCOCCNC(=O)CC[C@H](NC(=O)CCCCCCCCCCCCCCCCCCC(=O)O)C(=O)O)NC(=O)[C@@H](NC(=O)[C@H](CC(=O)O)NC(=O)[C@H](CC(C)C)NC(=O)[C@](C)(Cc1ccccc1)NC(=O)[C@H](CCCCN)NC(=O)[C@H](CO)NC(=O)[C@@H](NC(=O)[C@H](CC(=O)O)NC(=O)[C@H](CO)NC(=O)[C@@H](NC(=O)[C@H](Cc1ccccc1)NC(=O)[C@@H](NC(=O)CNC(=O)[C@H](CCC(N)=O)NC(=O)C(C)(C)NC(=O)[C@@H](N)Cc1c[nH]cn1)[C@@H](C)O)[C@@H](C)O)C(C)C)[C@@H](C)O)C(C)C)C(=O)N[C@@H](CC(C)C)C(=O)NC(C)(C)C(=O)N[C@@H](CCC(=O)O)C(N)=O", "note": "[Peptide 511] (H-H[Aib]QGTFTSDVSK[αMeF]LDTK([AEEA-AEEA-γGlu-C20 diacid])RARDFVRWLL[Aib]E-NH2; N-terminus assumed)", "values": [{"measurement": "EC50", "setting": "[1]", "result": 0.118, "unit": "nM"}, {"measurement": "% Relative Potency Ratio", "setting": "[1]", "result": 2.4}, {"measurement": "EC50", "setting": "[2]", "result": 0.14, "unit": "nM"}]}, {"smiles": "CC(C)C[C@H](NC(=O)[C@H](CC(C)C)NC(=O)[C@H](Cc1c[nH]c2ccccc12)NC(=O)[C@H](CCCNC(=N)N)NC(=O)[C@@H](NC(=O)[C@](C)(Cc1ccccc1)NC(=O)[C@H](CC(=O)O)NC(=O)[C@H](CCC(N)=O)NC(=O)[C@H](C)NC(=O)[C@H](CCCNC(=N)N)NC(=O)[C@H](CCCCNC(=O)COCCOCCNC(=O)COCCOCCNC(=O)CC[C@H](NC(=O)CCCCCCCCCCCCCCCCC(=O)O)C(=O)O)NC(=O)[C@@H](NC(=O)[C@H](CC(=O)O)NC(=O)[C@H](CC(C)C)NC(=O)[C@](C)(Cc1ccccc1)NC(=O)[C@H](CCCCN)NC(=O)[C@H](CO)NC(=O)[C@@H](NC(=O)[C@H](CC(=O)O)NC(=O)[C@H](CO)NC(=O)[C@@H](NC(=O)[C@](C)(Cc1ccccc1)NC(=O)[C@@H](NC(=O)CNC(=O)[C@H](CCC(N)=O)NC(=O)C(C)(C)NC(=O)[C@@H](N)Cc1c[nH]cn1)[C@@H](C)O)[C@@H](C)O)C(C)C)[C@@H](C)O)C(C)C)C(=O)N[C@@H](C)C(=O)NC(C)(C)C(=O)NCC(N)=O", "note": "[Peptide 512] (H-H[Aib]QGT[αMeF]TSDVSK[αMeF]LDTK([AEEA-AEEA-γGlu-C18 diacid])RAQD[αMeF]VRWLLA[Aib]G-NH2; N-terminus assumed)", "values": [{"measurement": "EC50", "setting": "[1]", "result": 0.159, "unit": "nM"}, {"measurement": "% Relative Potency Ratio", "setting": "[1]", "result": 28.7}, {"measurement": "EC50", "setting": "[2]", "result": 2.31, "unit": "nM"}]}, {"smiles": "CC(C)C[C@H](NC(=O)[C@H](CC(C)C)NC(=O)[C@H](Cc1c[nH]c2ccccc12)NC(=O)[C@H](CCC(N)=O)NC(=O)[C@@H](NC(=O)[C@](C)(Cc1ccccc1)NC(=O)[C@H](CC(=O)O)NC(=O)[C@H](CCCNC(=N)N)NC(=O)[C@H](C)NC(=O)[C@H](CCCNC(=N)N)NC(=O)[C@H](CCCCNC(=O)COCCOCCNC(=O)COCCOCCNC(=O)CC[C@H](NC(=O)CCCCCCCCCCCCCCCCC(=O)O)C(=O)O)NC(=O)[C@@H](NC(=O)[C@H](CC(=O)O)NC(=O)[C@H](CC(C)C)NC(=O)[C@](C)(Cc1ccccc1)NC(=O)[C@H](CCCCN)NC(=O)[C@H](CO)NC(=O)[C@@H](NC(=O)[C@H](CC(=O)O)NC(=O)[C@H](CO)NC(=O)[C@@H](NC(=O)[C@](C)(Cc1ccccc1)NC(=O)[C@@H](NC(=O)CNC(=O)[C@H](CCC(N)=O)NC(=O)C(C)(C)NC(=O)[C@@H](N)Cc1c[nH]cn1)[C@@H](C)O)[C@@H](C)O)C(C)C)[C@@H](C)O)C(C)C)C(=O)N[C@@H](C)C(=O)NC(C)(C)C(=O)NCC(N)=O", "note": "[Peptide 513] (H-H[Aib]QGT[αMeF]TSDVSK[αMeF]LDTK([AEEA-AEEA-γGlu-C18 diacid])RARD[αMeF]VQWLLA[Aib]G-NH2)", "values": [{"measurement": "EC50", "setting": "[1]", "result": 0.0938, "unit": "nM"}, {"measurement": "% Relative Potency Ratio", "setting": "[1]", "result": 28.3}, {"measurement": "EC50", "setting": "[2]", "result": 1.34, "unit": "nM"}]}, {"smiles": "CC(C)C[C@H](NC(=O)[C@H](Cc1c[nH]c2ccccc12)NC(=O)[C@H](CCC(N)=O)NC(=O)[C@@H](NC(=O)[C@H](Cc1ccccc1)NC(=O)[C@H](CC(=O)O)NC(=O)[C@H](CCCNC(=N)N)NC(=O)[C@H](C)NC(=O)[C@H](C)NC(=O)[C@H](CCCCNC(=O)COCCOCCNC(=O)COCCOCCNC(=O)CC[C@H](NC(=O)CCCCCCCCCCCCCCCCC(=O)O)C(=O)O)NC(=O)[C@@H](NC(=O)[C@H](CC(=O)O)NC(=O)[C@H](CC(C)C)NC(=O)[C@](C)(Cc1ccccc1)NC(=O)[C@H](CCCCN)NC(=O)[C@H](CO)NC(=O)[C@@H](NC(=O)[C@H](CC(=O)O)NC(=O)[C@H](CO)NC(=O)[C@@H](NC(=O)[C@H](Cc1ccccc1)NC(=O)[C@@H](NC(=O)CNC(=O)[C@H](CCC(N)=O)NC(=O)C(C)(C)NC(=O)[C@@H](N)Cc1c[nH]cn1)[C@@H](C)O)[C@@H](C)O)C(C)C)[C@@H](C)O)C(C)C)C(=O)N[C@@H](CC(C)C)C(=O)N[C@@H](CCC(=O)O)C(=O)NC(C)(C)C(=O)NCC(N)=O", "note": "[Peptide 514] (H-H[Aib]QGTFTSDVSK[αMeF]LDTK([AEEA-AEEA-γGlu-C18 diacid])AARDFVQWLLE[Aib]G-NH2; N-terminus assumed)", "values": [{"measurement": "EC50", "setting": "[1]", "result": 0.0767, "unit": "nM"}, {"measurement": "% Relative Potency Ratio", "setting": "[1]", "result": 35.4}, {"measurement": "EC50", "setting": "[2]", "result": 1.37, "unit": "nM"}]}, {"smiles": "CC(C)C[C@H](NC(=O)[C@H](Cc1c[nH]c2ccccc12)NC(=O)[C@H](CCC(N)=O)NC(=O)[C@@H](NC(=O)[C@H](Cc1ccccc1)NC(=O)[C@H](CC(=O)O)NC(=O)[C@H](CCCNC(=N)N)NC(=O)[C@H](C)NC(=O)[C@H](C)NC(=O)[C@H](CCCCNC(=O)COCCOCCNC(=O)COCCOCCNC(=O)CC[C@H](NC(=O)CCCCCCCCCCCCCCCCCCC(=O)O)C(=O)O)NC(=O)[C@@H](NC(=O)[C@H](CC(=O)O)NC(=O)[C@H](CC(C)C)NC(=O)[C@](C)(Cc1ccccc1)NC(=O)[C@H](CCCCN)NC(=O)[C@H](CO)NC(=O)[C@@H](NC(=O)[C@H](CC(=O)O)NC(=O)[C@H](CO)NC(=O)[C@@H](NC(=O)[C@H](Cc1ccccc1)NC(=O)[C@@H](NC(=O)CNC(=O)[C@H](CCC(N)=O)NC(=O)C(C)(C)NC(=O)[C@@H](N)Cc1c[nH]cn1)[C@@H](C)O)[C@@H](C)O)C(C)C)[C@@H](C)O)C(C)C)C(=O)N[C@@H](CC(C)C)C(=O)N[C@@H](CCC(=O)O)C(=O)NC(C)(C)C(=O)NCC(N)=O", "note": "[Peptide 515] (H-H[Aib]QGTFTSDVSK[αMeF]LDTK([AEEA-AEEA-γGlu-C20 diacid])AARDFVQWLLE[Aib]G-NH2; N-terminus assumed)", "values": [{"measurement": "EC50", "setting": "[1]", "result": 0.297, "unit": "nM"}, {"measurement": "% Relative Potency Ratio", "setting": "[1]", "result": 17.7}, {"measurement": "EC50", "setting": "[2]", "result": 2.66, "unit": "nM"}]}]}
